{
  "source": "the supplement of paper PMC11208160",
  "test": "recombinant UMI read abundance after kanamycin selection (control-corrected) (log10(CPM+1)); higher = more efficient recombination; extreme values may be limits of the assay; sequences stand for … in AGTGCAGAGAAAATCGGCCAGTTTTCTCTGCCTGCAGTCCGCATGCCGTGGGACCCCTTGGGTTCTAACCTGTTGCCTAGATTTATGCAGCGGACTGCCTTTCTCCCAAAGTGATAAACCGG…AGGTTGGTTTCACT; site = the 11-nt donor",
  "method_in_brief": "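Values, expressed as log10(CPM+1), derive from recombinant UMI counts converted to CPM, averaged across replicates and scaled by control-derived factors. Plating was with IPTG (0.07 mM) plus kanamycin or unselected, two replicates each. The screen pooled donor and donor-binding-loop pairs for the IS621 bridge recombinase in Escherichia coli.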",
  "data": [
    {"sequence": "TACGAATCATGGACCGGTTTTCCCGGTAATCCGTATTTGCG (site TACGAATCTCG)", "values": [
      {"measurement": "recombinant UMI read abundance (log10)", "value": 2.16}
    ]},
    {"sequence": "TACGAATCATGGACCGGTTTTCCCGGTAATCCGTATTTGCG (site TAGGAATCTCG)", "values": [
      {"measurement": "recombinant UMI read abundance (log10)", "value": 0.321}
    ]},
    {"sequence": "TACGAATCATGGACCGGTTTTCCCGGTAATCCGTATTTGCG (site TATGAATCTCG)", "values": [
      {"measurement": "recombinant UMI read abundance (log10)", "value": 2.1}
    ]},
    {"sequence": "TACGATACATGGACCGGTTTTCCCGGTAATCCGTATTTGGA (site TACGATACTTC)", "values": [
      {"measurement": "recombinant UMI read abundance (log10)", "value": 0.806}
    ]},
    {"sequence": "TACGCAACATGGACCGGTTTTCCCGGTAATCCGTATTTGAC (site TACGCAACTGT)", "values": [
      {"measurement": "recombinant UMI read abundance (log10)", "value": 2}
    ]},
    {"sequence": "TACGGAACATGGACCGGTTTTCCCGGTAATCCGTATTTGCA (site TACGGAACTTG)", "values": [
      {"measurement": "recombinant UMI read abundance (log10)", "value": 1.47}
    ]},
    {"sequence": "TACGTCGCATGGACCGGTTTTCCCGGTAATCCGTATTTGGA (site TACGTCGCTTC)", "values": [
      {"measurement": "recombinant UMI read abundance (log10)", "value": 1.08}
    ]},
    {"sequence": "TACTGAGCATGGACCGGTTTTCCCGGTAATCCGTATTTGGG (site TAATGAGCTCC)", "values": [
      {"measurement": "recombinant UMI read abundance (log10)", "value": 0.0256}
    ]},
    {"sequence": "TACTGAGCATGGACCGGTTTTCCCGGTAATCCGTATTTGGG (site TACTGAGCTCC)", "values": [
      {"measurement": "recombinant UMI read abundance (log10)", "value": 0.356}
    ]},
    {"sequence": "TACTGAGCATGGACCGGTTTTCCCGGTAATCCGTATTTGGG (site TAGTGAGCTCC)", "values": [
      {"measurement": "recombinant UMI read abundance (log10)", "value": 0.0147}
    ]},
    {"sequence": "TACTGAGCATGGACCGGTTTTCCCGGTAATCCGTATTTGGG (site TATTGAGCTCC)", "values": [
      {"measurement": "recombinant UMI read abundance (log10)", "value": 0}
    ]},
    {"sequence": "TACTGCCCATGGACCGGTTTTCCCGGTAATCCGTATTTGGA (site TACTGCCCTTC)", "values": [
      {"measurement": "recombinant UMI read abundance (log10)", "value": 0.00999}
    ]},
    {"sequence": "TACTGGGCATGGACCGGTTTTCCCGGTAATCCGTATTTGAA (site TACTGGGCTTT)", "values": [
      {"measurement": "recombinant UMI read abundance (log10)", "value": 0.637}
    ]},
    {"sequence": "TACTTGACATGGACCGGTTTTCCCGGTAATCCGTATTTGCA (site TACTTGACTAG)", "values": [
      {"measurement": "recombinant UMI read abundance (log10)", "value": 0}
    ]},
    {"sequence": "TACTTGACATGGACCGGTTTTCCCGGTAATCCGTATTTGCA (site TACTTGACTCG)", "values": [
      {"measurement": "recombinant UMI read abundance (log10)", "value": 0.0381}
    ]},
    {"sequence": "TACTTGACATGGACCGGTTTTCCCGGTAATCCGTATTTGCA (site TACTTGACTGG)", "values": [
      {"measurement": "recombinant UMI read abundance (log10)", "value": 0}
    ]},
    {"sequence": "TACTTGACATGGACCGGTTTTCCCGGTAATCCGTATTTGCA (site TACTTGACTTG)", "values": [
      {"measurement": "recombinant UMI read abundance (log10)", "value": 0.591}
    ]},
    {"sequence": "TACTTGACATGGACCGGTTTTCCCGGTAATCCGTATTTGCT (site AACTTGACTAG)", "values": [
      {"measurement": "recombinant UMI read abundance (log10)", "value": 0}
    ]},
    {"sequence": "TACTTGACATGGACCGGTTTTCCCGGTAATCCGTATTTGCT (site CACTTGACTAG)", "values": [
      {"measurement": "recombinant UMI read abundance (log10)", "value": 0.342}
    ]},
    {"sequence": "TACTTGACATGGACCGGTTTTCCCGGTAATCCGTATTTGCT (site GACTTGACTAG)", "values": [
      {"measurement": "recombinant UMI read abundance (log10)", "value": 0.00311}
    ]},
    {"sequence": "TACTTGACATGGACCGGTTTTCCCGGTAATCCGTATTTGCT (site TAATTGACTAG)", "values": [
      {"measurement": "recombinant UMI read abundance (log10)", "value": 0.201}
    ]},
    {"sequence": "TACTTGACATGGACCGGTTTTCCCGGTAATCCGTATTTGCT (site TACATGACTAG)", "values": [
      {"measurement": "recombinant UMI read abundance (log10)", "value": 0.0307}
    ]},
    {"sequence": "TACTTGACATGGACCGGTTTTCCCGGTAATCCGTATTTGCT (site TACCTGACTAG)", "values": [
      {"measurement": "recombinant UMI read abundance (log10)", "value": 0.89}
    ]},
    {"sequence": "TACTTGACATGGACCGGTTTTCCCGGTAATCCGTATTTGCT (site TACGTGACTAG)", "values": [
      {"measurement": "recombinant UMI read abundance (log10)", "value": 0.16}
    ]},
    {"sequence": "TACTTGACATGGACCGGTTTTCCCGGTAATCCGTATTTGCT (site TACTAGACTAG)", "values": [
      {"measurement": "recombinant UMI read abundance (log10)", "value": 0.43}
    ]},
    {"sequence": "TACTTGACATGGACCGGTTTTCCCGGTAATCCGTATTTGCT (site TACTCGACTAG)", "values": [
      {"measurement": "recombinant UMI read abundance (log10)", "value": 0.277}
    ]},
    {"sequence": "TACTTGACATGGACCGGTTTTCCCGGTAATCCGTATTTGCT (site TACTGGACTAG)", "values": [
      {"measurement": "recombinant UMI read abundance (log10)", "value": 0.46}
    ]},
    {"sequence": "TACTTGACATGGACCGGTTTTCCCGGTAATCCGTATTTGCT (site TACTTAACTAG)", "values": [
      {"measurement": "recombinant UMI read abundance (log10)", "value": 0}
    ]},
    {"sequence": "TACTTGACATGGACCGGTTTTCCCGGTAATCCGTATTTGCT (site TACTTCACTAG)", "values": [
      {"measurement": "recombinant UMI read abundance (log10)", "value": 0.00555}
    ]},
    {"sequence": "TACTTGACATGGACCGGTTTTCCCGGTAATCCGTATTTGCT (site TACTTGACTAA)", "values": [
      {"measurement": "recombinant UMI read abundance (log10)", "value": 0.00336}
    ]},
    {"sequence": "TACTTGACATGGACCGGTTTTCCCGGTAATCCGTATTTGCT (site TACTTGACTAC)", "values": [
      {"measurement": "recombinant UMI read abundance (log10)", "value": 0.0348}
    ]},
    {"sequence": "TACTTGACATGGACCGGTTTTCCCGGTAATCCGTATTTGCT (site TACTTGACTAG)", "values": [
      {"measurement": "recombinant UMI read abundance (log10)", "value": 1.12}
    ]},
    {"sequence": "TACTTGACATGGACCGGTTTTCCCGGTAATCCGTATTTGCT (site TACTTGACTAT)", "values": [
      {"measurement": "recombinant UMI read abundance (log10)", "value": 0.00796}
    ]},
    {"sequence": "TACTTGACATGGACCGGTTTTCCCGGTAATCCGTATTTGCT (site TACTTGACTCG)", "values": [
      {"measurement": "recombinant UMI read abundance (log10)", "value": 0}
    ]},
    {"sequence": "TACTTGACATGGACCGGTTTTCCCGGTAATCCGTATTTGCT (site TACTTGACTGG)", "values": [
      {"measurement": "recombinant UMI read abundance (log10)", "value": 0}
    ]},
    {"sequence": "TACTTGACATGGACCGGTTTTCCCGGTAATCCGTATTTGCT (site TACTTGACTTG)", "values": [
      {"measurement": "recombinant UMI read abundance (log10)", "value": 0.00876}
    ]},
    {"sequence": "TACTTGACATGGACCGGTTTTCCCGGTAATCCGTATTTGCT (site TACTTGCCTAG)", "values": [
      {"measurement": "recombinant UMI read abundance (log10)", "value": 0}
    ]},
    {"sequence": "TACTTGACATGGACCGGTTTTCCCGGTAATCCGTATTTGCT (site TACTTGGCTAG)", "values": [
      {"measurement": "recombinant UMI read abundance (log10)", "value": 0.00865}
    ]},
    {"sequence": "TACTTGACATGGACCGGTTTTCCCGGTAATCCGTATTTGCT (site TACTTGTCTAG)", "values": [
      {"measurement": "recombinant UMI read abundance (log10)", "value": 0.0219}
    ]},
    {"sequence": "TACTTGACATGGACCGGTTTTCCCGGTAATCCGTATTTGCT (site TACTTTACTAG)", "values": [
      {"measurement": "recombinant UMI read abundance (log10)", "value": 0}
    ]},
    {"sequence": "TACTTGACATGGACCGGTTTTCCCGGTAATCCGTATTTGCT (site TAGTTGACTAG)", "values": [
      {"measurement": "recombinant UMI read abundance (log10)", "value": 0.00537}
    ]},
    {"sequence": "TACTTGACATGGACCGGTTTTCCCGGTAATCCGTATTTGCT (site TATTTGACTAG)", "values": [
      {"measurement": "recombinant UMI read abundance (log10)", "value": 0.0574}
    ]},
    {"sequence": "TACTTGACATGGACCGGTTTTCCCGGTAATCCGTATTTGCT (site TCCTTGACTAG)", "values": [
      {"measurement": "recombinant UMI read abundance (log10)", "value": 0.255}
    ]},
    {"sequence": "TACTTGACATGGACCGGTTTTCCCGGTAATCCGTATTTGCT (site TGCTTGACTAG)", "values": [
      {"measurement": "recombinant UMI read abundance (log10)", "value": 0.0612}
    ]},
    {"sequence": "TACTTGACATGGACCGGTTTTCCCGGTAATCCGTATTTGCT (site TTCTTGACTAG)", "values": [
      {"measurement": "recombinant UMI read abundance (log10)", "value": 0}
    ]},
    {"sequence": "TACTTGCCATGGACCGGTTTTCCCGGTAATCCGTATTTGCT (site TACTTGACTAG)", "values": [
      {"measurement": "recombinant UMI read abundance (log10)", "value": 0.00966}
    ]},
    {"sequence": "TACTTGCCATGGACCGGTTTTCCCGGTAATCCGTATTTGCT (site TACTTGCCTAG)", "values": [
      {"measurement": "recombinant UMI read abundance (log10)", "value": 0.597}
    ]},
    {"sequence": "TACTTGCCATGGACCGGTTTTCCCGGTAATCCGTATTTGCT (site TACTTGGCTAG)", "values": [
      {"measurement": "recombinant UMI read abundance (log10)", "value": 0.00743}
    ]},
    {"sequence": "TACTTGCCATGGACCGGTTTTCCCGGTAATCCGTATTTGCT (site TACTTGTCTAG)", "values": [
      {"measurement": "recombinant UMI read abundance (log10)", "value": 0.383}
    ]},
    {"sequence": "TACTTGGCATGGACCGGTTTTCCCGGTAATCCGTATTTGTG (site TAATTGGCTCA)", "values": [
      {"measurement": "recombinant UMI read abundance (log10)", "value": 0.0141}
    ]},
    {"sequence": "TACTTGGCATGGACCGGTTTTCCCGGTAATCCGTATTTGTG (site TACTTGGCTCA)", "values": [
      {"measurement": "recombinant UMI read abundance (log10)", "value": 0.305}
    ]},
    {"sequence": "TACTTGGCATGGACCGGTTTTCCCGGTAATCCGTATTTGTG (site TAGTTGGCTCA)", "values": [
      {"measurement": "recombinant UMI read abundance (log10)", "value": 0.017}
    ]}
  ]
}
